Each compound was assayed against T1, NLRP3 inflammasome (Homo sapiens, UniProt Q96P20) (assay: IL-1β secretion assay (NLRP3 IC50) in LPS-primed, nigericin-activated THP-1 cells, HTRF). Conditions: monocytic THP-1 cells; LPS 10 ng/mL 3 h priming, then compound + nigericin 10 μM 2 h; relative IC50, 10 concentrations, geometric mean.
T1 construct: endogenous in cells; host or cells: THP-1 monocytic cells
Type: cell-based
Method: Monocytic THP-1 cells were maintained in RPMI 1640 media (Gibco 21875)+10% FBS, (Gibco 10500)+1% penicillin/streptomycin (Gibco 15140-122). Cells were then plated at 40,000 cells per well in 384-well cell culture plates (CoRNning 3542) and maintained with RPMI1640 (Gibco 11835)+5% FBS (Gibco 10500). Activation of the NLRP3 inflammasome requires both an NF-kB-dependent priming step and the addition of a NLRP3 activator. The priming step was induced by LPS (10 ng/mL, InvivoGen ref tlrl-3pelps) for 3 h at 37° C., then compound, in a 1:3 serial dilution series in DMSO (final concentration DMSO 0.1%), and the activator nigericin (Sigma Aldrich, ref: SML1779) 10 μM (final concentration) were added to the cells and co-incubated for 2 hours. 16 μL supernatant was removed, and IL-1β levels were monitored using an HTRF assay (Human IL1b Kits HTRF Cisbio ref: 62HILBPEH) according to manufacturers' instructions.
Data were expressed as percentage of inhibition (I %) as compared to a maximum signal control containing no small molecule (I %=0%) according to the formula: 1%=(1−((Sample−Min))/((Max−Min)))×100, where: • Sample: Signal obtained in the presence of each compound tested, • Max: Maximum signal in the absence of compound added, • Min: Minimum or background signal obtained in the absence of activation signal.
Relative IC50 (IC50 rel) were obtained from a dose response curve with 10 concentrations. Final IC50 rels are expressed as the geometric mean.
Relative IC50 values were estimated with Biost@t-SPEED v2.4 internal software based on SAS system using the 4-parameter logistic model according to Ratkovsky and Reedy (D. A. Ratkovsky, T. J. Reedy, Choosing near-linear parameters in the four parameters logistic model radioligands and related assays. Biometrics, 42 (1986), 575-582): Y=A+C/((1+exp(−B*(log(X)−M)))), where: • A: Lower asymptote (BOTTOM), • A+C: Upper asymptote (TOP), • M: the logarithm of the concentration estimated at the inflexion point (the logarithm of the relative IC50), • B: Slope at the inflexion point of the curve.

T1 sequence (Q96P20 whole entry): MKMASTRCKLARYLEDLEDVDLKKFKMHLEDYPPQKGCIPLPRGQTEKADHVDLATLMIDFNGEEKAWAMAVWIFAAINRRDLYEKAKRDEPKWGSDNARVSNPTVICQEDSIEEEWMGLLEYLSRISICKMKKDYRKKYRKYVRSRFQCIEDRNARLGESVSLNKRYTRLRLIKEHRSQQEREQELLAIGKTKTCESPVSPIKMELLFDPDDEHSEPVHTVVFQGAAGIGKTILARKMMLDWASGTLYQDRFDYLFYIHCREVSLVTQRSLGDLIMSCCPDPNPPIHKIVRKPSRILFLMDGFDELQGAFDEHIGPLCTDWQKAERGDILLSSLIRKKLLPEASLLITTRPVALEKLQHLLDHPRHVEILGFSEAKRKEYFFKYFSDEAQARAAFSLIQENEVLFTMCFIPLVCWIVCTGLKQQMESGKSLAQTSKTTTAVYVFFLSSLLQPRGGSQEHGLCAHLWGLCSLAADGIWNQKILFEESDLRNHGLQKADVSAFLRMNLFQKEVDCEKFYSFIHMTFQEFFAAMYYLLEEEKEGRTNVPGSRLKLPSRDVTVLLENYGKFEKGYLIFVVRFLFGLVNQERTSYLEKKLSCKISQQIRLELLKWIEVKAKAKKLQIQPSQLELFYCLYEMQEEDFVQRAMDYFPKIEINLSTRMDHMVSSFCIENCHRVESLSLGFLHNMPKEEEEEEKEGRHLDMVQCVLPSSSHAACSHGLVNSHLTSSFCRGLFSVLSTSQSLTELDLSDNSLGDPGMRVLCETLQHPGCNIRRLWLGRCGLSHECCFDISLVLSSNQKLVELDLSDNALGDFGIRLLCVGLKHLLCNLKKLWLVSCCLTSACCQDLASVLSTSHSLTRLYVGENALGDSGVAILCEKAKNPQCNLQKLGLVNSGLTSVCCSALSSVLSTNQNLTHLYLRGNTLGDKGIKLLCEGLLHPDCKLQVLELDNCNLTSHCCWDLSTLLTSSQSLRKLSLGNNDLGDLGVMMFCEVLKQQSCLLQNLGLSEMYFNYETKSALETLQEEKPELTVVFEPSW

Compared with `Cc1cc(C(F)(F)F)cc(O)c1-c1ccc(N2CCOC(C(C)(C)O)C2)nn1` (single isomer, unassigned) [Example 52, 2-[6-[2-(1-hydroxy-1-methyl-ethyl)morpholin-4-yl]pyridazin-3-yl]-3-methyl-5-(trifluoromethyl)phenol], `Cc1cc(C(F)(F)F)cc(O)c1-c1ccc(N2CCO[C@@H](CF)C2)nn1` (single isomer, unassigned) [Example 283] is 9.3-fold lower in IC50: 1250 nM for the first, 135 nM for the second. The second is the more potent here.

First: Cc1cc(C)c(-c2ccc(N3CC4(CCC(O)C4)C3)nn2)c(O)c1 (single isomer, unassigned) [Example 95, 2-[6-(2-hydroxy-4,6-dimethyl-phenyl)pyridazin-3-yl]-2-azaspiro[3.4]octan-6-ol]
Second: Cc1cc(C)c(-c2ccc(N3CCO[C@H](C4(N)CC4)C3)nn2)c(O)c1 (single isomer, unassigned) [Example 135]
The IC50 of the first is 2.2-fold higher: 2200 nM for the first, 997 nM for the second.

Going from `Cc1cc(C)c(-c2ccc(N3CCOC([C@H](C)O)C3)nn2)c(O)c1` (single isomer, unassigned) [Example 98] to `Cc1cc(C)c(-c2ccc(N3CCO[C@@H](C(C)O)C3)nn2)c(O)c1` (single isomer, unassigned) [Example 108], the IC50 rises from 298 nM to 545 nM (1.8-fold). The first is the more potent here.

`Cc1cc(C)c(-c2ccc(N3CCOC([C@H](C)O)C3)nn2)c(O)c1` (single isomer, unassigned) [Example 99] and `CCC(=O)C1CN(c2ccc(-c3c(C)cc(C)cc3O)nn2)CCO1` (single isomer, unassigned) [Example 156] are within 1.5-fold of each other in IC50: 752 nM for the first, 1060 nM for the second.

Going from `Cc1cc(C)c(-c2ccc(N3CCO[C@@H](C4(N)CC4)C3)nn2)c(O)c1` (single isomer, unassigned) [Example 136] to `Cc1cc(C)c(-c2ccc(N3CCO[C@H](CC(=O)N(C)C)C3)nn2)c(O)c1` (single isomer, unassigned) [Example 150], the IC50 falls from 3030 nM to 1790 nM (1.7-fold).

Going from `Cc1cc(C)c(-c2ccc(N3CCO[C@@H](CC(=O)N(C)C)C3)nn2)c(O)c1` (single isomer, unassigned) [Example 151] to `Cc1cc(C(F)(F)F)cc(O)c1-c1ccc(N2CCO[C@H](CC#N)C2)nn1` (single isomer, unassigned) [Example 327], the IC50 falls from 1170 nM to 292 nM (4-fold).

First: Cc1cc(C(F)(F)F)cc(O)c1-c1ccc(N2CC[C@@H]3CN(C)C[C@@H]32)nn1 (single isomer, unassigned) [Example 271]
Second: Cc1cc(C(F)(F)F)cc(O)c1-c1ccc(N2CCO[C@H]3CN(C)C[C@H]32)nn1 (single isomer, unassigned) [Example 333]
The IC50 of the first is 1.5-fold higher: 690 nM for the first, 460 nM for the second. The second is the more potent here.

`Cc1cc(C(F)(F)F)cc(O)c1-c1ccc(N2CCC[C@H](CO)C2=O)nn1` (single isomer, unassigned) [Example 287] and `Cc1cc(C(F)(F)F)cc(O)c1-c1ccc(N2CCC[C@@H](CO)C2=O)nn1` (single isomer, unassigned) [Example 288] are within 1.5-fold of each other in IC50: 115 nM for the first, 143 nM for the second.

First: Cc1cc(C(F)(F)F)cc(O)c1-c1ccc(N2CCO[C@@H]3CCN(C)C[C@H]32)nn1 (single isomer, unassigned) [Example 301]
Second: Cc1cc(C(F)(F)F)cc(O)c1-c1ccc(N2CCO[C@@H]3CN(C)C[C@@H]32)nn1 (single isomer, unassigned) [Example 334]
The IC50 of the first is 12-fold higher: 868 nM for the first, 73 nM for the second. The second is the more potent here.

First: CC(=O)N1CC[C@@H]2OCCN(c3ccc(-c4c(C)cc(Cl)cc4O)nn3)[C@@H]2C1 (single isomer, unassigned) [Example 304]
Second: Cc1cc(Cl)cc(O)c1-c1ccc(N2CCO[C@H]3CCN(C)C[C@H]32)nn1 (single isomer, unassigned) [Example 307]
The IC50 of the first is 2.9-fold lower: 142 nM for the first, 410 nM for the second. The first is the more potent here.

`Cc1cc(C(F)(F)F)cc(O)c1-c1ccc(N2CC[C@H](CO)C2=O)nn1` (single isomer, unassigned) [Example 325] and `Cc1cc(C(F)(F)F)cc(O)c1-c1ccc(N2CC[C@@H](CO)C2=O)nn1` (single isomer, unassigned) [Example 326] are within 1.5-fold of each other in IC50: 275 nM for the first, 198 nM for the second.

First: Cc1cc(C(F)(F)F)cc(O)c1-c1ccc(N2CCO[C@@H](CC#N)C2)nn1 (single isomer, unassigned) [Example 328]
Second: CNCC[C@@H]1CN(c2ccc(-c3c(C)cc(C(F)(F)F)cc3O)nn2)CCO1 (single isomer, unassigned) [Example 331]
The IC50 of the first is 4.9-fold lower: 219 nM for the first, 1080 nM for the second. The first is the more potent here.

`Cc1cc(C)c(-c2ccc(N3CC(=O)N[C@@H](CO)C3)nn2)c(O)c1` (single isomer, unassigned) [Example 329] and `Cc1cc(C)c(-c2ccc(N3CC(=O)N[C@H](CO)C3)nn2)c(O)c1` (single isomer, unassigned) [Example 330] are within 1.5-fold of each other in IC50: 711 nM for the first, 987 nM for the second.

Going from `CNCC[C@H]1CN(c2ccc(-c3c(C)cc(C(F)(F)F)cc3O)nn2)CCO1` (single isomer, unassigned) [Example 332] to `Cc1cc(C(F)(F)F)cc(O)c1-c1ccc(N2CCOC(CO)C2=O)nn1` (single isomer, unassigned) [Example 419], the IC50 falls from 396 nM to 127 nM (3.1-fold).

`CC(=O)N1CCC2OCCN(c3ccc(-c4c(C)cc(C(F)(F)F)cc4O)nn3)C2C1` (single isomer, unassigned) [Example 336] and `CC(=O)N1CC[C@@H]2OCCN(c3ccc(-c4c(C)cc(C(F)(F)F)cc4O)nn3)[C@H]2C1` (single isomer, unassigned) [Example 349] are within 1.5-fold of each other in IC50: 1160 nM for the first, 953 nM for the second.

First: CC(=O)N1C[C@@H]2OCCN(c3ccc(-c4c(C)cc(C(F)(F)F)cc4O)nn3)[C@@H]2C1 (single isomer, unassigned) [Example 348]
Second: CC(=O)N1C[C@H]2OCCN(c3ccc(-c4c(C)cc(C(F)(F)F)cc4O)nn3)[C@H]2C1 (single isomer, unassigned) [Example 352]
The IC50 of the first is 1.9-fold lower: 199 nM for the first, 375 nM for the second.

Compared with `Cc1cc(C)c(-c2ccc(N3CC[C@H]4CCN(C)C[C@H]43)nn2)c(O)c1` (single isomer, unassigned) [Example 383], `CCc1cc(C)cc(O)c1-c1ccc(N2CC[C@H]3CCN(C)C[C@H]32)nn1` (single isomer, unassigned) [Example 476] is 4.8-fold lower in IC50: 1010 nM for the first, 209 nM for the second. The second is the more potent here.

`Cc1cc(C(F)(F)F)cc(O)c1-c1ccc(N2CC[C@H]3CCNC[C@H]32)nn1` (single isomer, unassigned) [Example 393] and `CC(=O)N1CC[C@H]2CCN(c3ccc(-c4c(C)cc(C)cc4O)nn3)[C@H]2C1` (single isomer, unassigned) [Example 413] are within 1.5-fold of each other in IC50: 461 nM for the first, 500 nM for the second.

First: CC(=O)N1CC[C@@H]2CCN(c3ccc(-c4c(C)cc(C)cc4O)nn3)[C@@H]2C1 (single isomer, unassigned) [Example 414]
Second: Cc1cccc(O)c1-c1ccc(N2CC[C@@H]3CCN(C)C[C@@H]32)nn1 (single isomer, unassigned) [Example 415]
The IC50 of the first is 6.7-fold lower: 699 nM for the first, 4660 nM for the second. The first is the more potent here.

First: Cc1cc(C(F)(F)F)cc(O)c1-c1ccc(N2CCOC(CO)C2=O)nn1 (single isomer, unassigned) [Example 420]
Second: Cc1cc(C)c(-c2ccc(N3CCO[C@@H]4C[C@@H](O)C[C@@H]43)nn2)c(O)c1 (single isomer, unassigned) [Example 466]
The IC50 of the first is 6-fold higher: 601 nM for the first, 100 nM for the second. The second is the more potent here.

`CCc1cccc(O)c1-c1ccc(N2CC[C@@H]3CCN(C)C[C@@H]32)nn1` (single isomer, unassigned) [Example 422] and `CN1CC[C@@H]2CCN(c3ccc(-c4c(O)cccc4C(F)(F)F)nn3)[C@@H]2C1` (single isomer, unassigned) [Example 426] are within 1.5-fold of each other in IC50: 1140 nM for the first, 952 nM for the second.

Compared with `Cc1cc(C)c(-c2ccc(N3CCO[C@H]4C[C@H](O)C[C@H]43)nn2)c(O)c1` (single isomer, unassigned) [Example 467], `CCN1CC[C@@H]2CCN(c3cc(C)c(-c4ccc(C)cc4O)nn3)[C@@H]2C1` (single isomer, unassigned) [Example 474] is lower in IC50: 14 nM for the first, under 0.3 nM for the second.

First: Cc1cc(N2CC[C@H]3CCN(C)C[C@H]32)nnc1-c1ccc(Cl)cc1O (single isomer, unassigned) [Example 468]
Second: CCN1CC[C@H]2CCN(c3cc(C)c(-c4ccc(C)cc4O)nn3)[C@H]2C1 (single isomer, unassigned) [Example 475]
The IC50 of the first is 5.8-fold higher: 544 nM for the first, 93 nM for the second.

First: Cc1cc(N2CC[C@H]3CCN(C)C[C@H]32)nnc1-c1ccc(Cl)cc1O (single isomer, unassigned) [Example 469]
Second: CCN1CC[C@@H]2CCN(c3ccc(-c4c(O)cccc4C(F)(F)F)nn3)[C@@H]2C1 (single isomer, unassigned) [Example 473]
The IC50 of the first is 5-fold lower: 1 nM for the first, 5 nM for the second. The first is the more potent here.
